# Data: patent US20040096845A1, “Peritoneal dialysates” (priority 2000, published 2004)
# Read-outs that look alike come from different tables or passages of the source.
# What was measured:
# [1] = test system: Collagen IV; experiment: Suppression of methylglyoxal-induced cross linking of collagen IV, by fluorescent intensity; type: biochemical
# [2] = Redox potential of cross linking suppressors; type: physicochemical
# [3] = test system: AGE formation in peritoneum tissue; conditions: rat
# [4] = collagen IV + methylglyoxal in phosphate buffer solution, 37° C., 7 days, relative to Control 3 = 100
# [5] = Table 3, Control 3 (no suppressor) +282
Structure (SMILES),Increase in FI % [1] [%],Redox potential (mV) [2],also measured
O=S([O-])O.[Na+] [Sodium bisulfite],0,−127 mV,
S [Sodium hydrosulfide],10,−620 mV,
CNC(=S)NC [Dimethylthiourea],2,−40 mV,
O=C(C[n+]1ccsc1)c1ccccc1.[Br-] [N-Phenacyl thiazolium bromide],,,"AGE formation in peritoneum (in words) ([3]; solution (C), methylglyoxal + additive, 5 days): did not form AGE; AGE formed on peritoneum tissue through first 5 days infusion, after second 5 days infusion (in words) ([3]; solution (D), additive alone for second 5 days): disappeared"
O=S([O-])([O-])=S.[Na+].[Na+] [Sodium thiosulfate],67,+40 mV,
O=S([O-])S(=O)(=O)[O-].[Na+].[Na+] [Sodium metabisulfite],,,"Increase in FI % [1, 4]: 0%; Redox potential (mV) [2, 5]: +17 mV"
"O=S([O-])S(=O)[O-].[Na+].[Na+] [Sodium hydrosulfite (Na2S2O4), Sodium hydrosulfite]",,,"Increase in FI % [1, 4]: 0%; Redox potential (mV) [2, 5]: −360 mV"
